Measured values as given in PubChem BioAssay (NCI).
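Cultured in 96-well plates, cells were exposed to test compound for 48 hours across five concentrations. TGI is the concentration that stops growth completely.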

Columns and labels:
Experiment in all cases: NCI tumour cell line growth inhibition, 48 h
[1] = test system: 786-0 renal
[2] = test system: A549 NSCLC
[3] = test system: ACHN renal
[4] = test system: CCRF-CEM leukemia
[5] = test system: COLO 205 colon
[6] = test system: DLD-1 colon
[7] = test system: DMS 273 small cell lung
[8] = test system: EKVX NSCLC
[9] = test system: HCC-2998 colon
[10] = test system: HCT-116 colon
[11] = test system: HCT-15 colon
[12] = test system: HL-60(TB) leukemia
[13] = test system: HOP-62 NSCLC
[14] = test system: HT29 colon
[15] = test system: IGROV1 ovarian
[16] = test system: K-562 leukemia
[17] = test system: KM12 colon
[18] = test system: KM20L2 colon
[19] = test system: LOX IMVI melanoma
[20] = test system: LXFL 529 NSCLC
[21] = test system: M14 melanoma
[22] = test system: M19-MEL melanoma
[23] = test system: MALME-3M melanoma
[24] = test system: MOLT-4 leukemia
[25] = test system: NCI-H226 lung
[26] = test system: NCI-H23 lung
[27] = test system: NCI-H460 lung
[28] = test system: NCI-H522 lung
[29] = test system: OVCAR-3 ovarian
[30] = test system: OVCAR-4 ovarian
[31] = test system: OVCAR-8 ovarian
[32] = test system: RXF 393 renal
[33] = test system: SF-268 CNS
[34] = test system: SF-295 CNS
[35] = test system: SF-539 CNS
[36] = test system: SK-MEL-2 melanoma
[37] = test system: SK-MEL-28 melanoma
[38] = test system: SK-MEL-5 melanoma
[39] = test system: SK-OV-3 ovarian
[40] = test system: SN12C renal
[41] = test system: SNB-19 CNS
[42] = test system: SNB-75 CNS
[43] = test system: SNB-78 CNS
[44] = test system: SR leukemia
[45] = test system: SW-620 colon
[46] = test system: TK-10 renal
[47] = test system: U251 CNS
[48] = test system: UACC-257 melanoma
[49] = test system: UACC-62 melanoma
[50] = test system: UO-31 renal
[51] = test system: XF 498 CNS
[52] = test system: A498 renal
[53] = test system: CAKI-1 renal
[54] = test system: DMS 114 small cell lung
[55] = test system: HOP-18 NSCLC
[56] = test system: HOP-92 NSCLC
[57] = test system: OVCAR-5 ovarian
[58] = test system: RPMI-8226 leukemia

CC(=O)NC1=C(NCc2ccc(Cl)cc2)C(=O)c2ccccc2C1=O
TGI [1]: 15.7 µM | TGI [2]: > 50 µM | TGI [3]: 6.13 µM | TGI [4]: 32.3 µM | TGI [5]: 11.4 µM | TGI [6]: 13.2 µM | TGI [7]: 14.6 µM | TGI [8]: 31.4 µM | TGI [9]: > 50 µM | TGI [10]: 9.35 µM | TGI [11]: 11.6 µM | TGI [12]: 3.22 µM | TGI [13]: > 50 µM | TGI [14]: > 50 µM | TGI [15]: 49.6 µM | TGI [16]: 16.7 µM | TGI [17]: > 50 µM | TGI [18]: > 50 µM | TGI [19]: 20.9 µM | TGI [20]: 13 µM | TGI [21]: 13.5 µM | TGI [22]: 11.2 µM | TGI [23]: 16.5 µM | TGI [24]: > 50 µM | TGI [25]: 26.1 µM | TGI [26]: 13.5 µM | TGI [27]: > 50 µM | TGI [28]: 3.13 µM | TGI [29]: 13.1 µM | TGI [30]: 13.4 µM | TGI [31]: 14.1 µM | TGI [32]: 10.5 µM | TGI [33]: > 50 µM | TGI [34]: 47 µM | TGI [35]: 10.5 µM | TGI [36]: 12.2 µM | TGI [37]: 11.5 µM | TGI [38]: 11.4 µM | TGI [39]: > 50 µM | TGI [40]: > 50 µM | TGI [41]: > 50 µM | TGI [42]: 15.2 µM | TGI [43]: 24.1 µM | TGI [44]: 29.9 µM | TGI [45]: 13.6 µM | TGI [46]: 15.1 µM | TGI [47]: 24.2 µM | TGI [48]: 12.4 µM | TGI [49]: 8.61 µM | TGI [50]: 11.4 µM | TGI [51]: 4.74 µM

Cc1c(O)c(=O)ccn1CCO
TGI [1]: > 100 µM | TGI [52]: > 100 µM | TGI [2]: > 100 µM | TGI [3]: > 100 µM | TGI [53]: > 100 µM | TGI [4]: > 100 µM | TGI [5]: > 100 µM | TGI [6]: > 100 µM | TGI [54]: > 100 µM | TGI [8]: > 100 µM | TGI [10]: > 100 µM | TGI [11]: > 100 µM | TGI [12]: > 100 µM | TGI [55]: > 100 µM | TGI [13]: > 100 µM | TGI [56]: > 100 µM | TGI [14]: > 100 µM | TGI [16]: > 100 µM | TGI [17]: > 100 µM | TGI [18]: > 100 µM | TGI [19]: > 100 µM | TGI [20]: > 100 µM | TGI [21]: > 100 µM | TGI [22]: > 100 µM | TGI [23]: > 100 µM | TGI [24]: > 100 µM | TGI [25]: > 100 µM | TGI [27]: > 100 µM | TGI [28]: > 100 µM | TGI [29]: > 100 µM | TGI [30]: > 100 µM | TGI [57]: > 100 µM | TGI [31]: > 100 µM | TGI [58]: > 100 µM | TGI [32]: > 100 µM | TGI [33]: > 100 µM | TGI [34]: > 100 µM | TGI [36]: > 100 µM | TGI [37]: > 100 µM | TGI [38]: > 100 µM | TGI [39]: > 100 µM | TGI [40]: > 100 µM | TGI [41]: > 100 µM | TGI [42]: > 100 µM | TGI [43]: > 100 µM | TGI [44]: > 100 µM | TGI [45]: > 100 µM | TGI [46]: > 100 µM | TGI [47]: > 100 µM | TGI [48]: > 100 µM | TGI [49]: > 100 µM | TGI [50]: > 100 µM | TGI [51]: > 100 µM
